Source: ChEMBL document CHEMBL1145605, “Novel 2-imidazoles as potent and selective alpha1A adrenoceptor partial agonists” (Bioorg Med Chem Lett, 2008)

What was measured:
[1] = target: T1, Alpha-2A adrenergic receptor (Homo sapiens, UniProt P08913); test: Agonist activity at human cloned adrenergic alpha-2A receptor expressed in CHOK1 cells by beta-lactamase reporter gene assay; format: functional, cell-based, CHO-K1
T1 sequence (P08913 whole entry): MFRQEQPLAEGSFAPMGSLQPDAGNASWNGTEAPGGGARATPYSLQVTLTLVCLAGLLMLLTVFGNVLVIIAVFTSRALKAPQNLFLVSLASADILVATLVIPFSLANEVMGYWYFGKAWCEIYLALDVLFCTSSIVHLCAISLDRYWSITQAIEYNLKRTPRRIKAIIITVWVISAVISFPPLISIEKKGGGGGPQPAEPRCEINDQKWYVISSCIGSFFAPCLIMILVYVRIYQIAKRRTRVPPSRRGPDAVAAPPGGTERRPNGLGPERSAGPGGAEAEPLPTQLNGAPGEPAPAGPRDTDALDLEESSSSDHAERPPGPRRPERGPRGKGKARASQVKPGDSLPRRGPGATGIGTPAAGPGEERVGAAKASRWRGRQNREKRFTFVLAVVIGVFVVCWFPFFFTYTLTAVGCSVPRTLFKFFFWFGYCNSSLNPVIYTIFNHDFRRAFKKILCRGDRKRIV

[2] = target: T2, Alpha-1D adrenergic receptor (Homo sapiens, UniProt P25100); test: Agonist activity at human cloned adrenergic Alpha-1D receptor expressed in CHO cells assessed as calcium mobilization by FLIPR; format: functional, cell-based
T2 sequence (P25100 whole entry): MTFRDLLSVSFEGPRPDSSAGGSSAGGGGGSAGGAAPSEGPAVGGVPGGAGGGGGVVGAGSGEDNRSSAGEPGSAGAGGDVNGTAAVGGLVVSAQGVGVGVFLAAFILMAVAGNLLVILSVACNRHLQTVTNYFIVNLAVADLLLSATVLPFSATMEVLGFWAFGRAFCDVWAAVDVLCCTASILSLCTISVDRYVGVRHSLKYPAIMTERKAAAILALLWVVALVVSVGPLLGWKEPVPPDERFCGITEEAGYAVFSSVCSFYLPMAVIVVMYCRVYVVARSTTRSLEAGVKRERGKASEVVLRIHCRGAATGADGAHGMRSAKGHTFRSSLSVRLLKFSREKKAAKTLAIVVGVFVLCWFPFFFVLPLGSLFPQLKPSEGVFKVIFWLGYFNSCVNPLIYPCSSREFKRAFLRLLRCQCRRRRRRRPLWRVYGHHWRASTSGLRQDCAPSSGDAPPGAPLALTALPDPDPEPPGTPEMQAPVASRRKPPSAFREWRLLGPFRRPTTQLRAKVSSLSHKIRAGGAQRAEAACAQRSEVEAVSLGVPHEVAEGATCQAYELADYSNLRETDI

[3] = target: T3, Alpha-1A adrenergic receptor (Homo sapiens) (UniProt P35348); test: Agonist activity at human cloned adrenergic alpha-1A receptor expressed in CHO cells assessed as calcium mobilization by FLIPR relative to phenylephrine; format: functional, cell-based
T3 sequence (whole entry): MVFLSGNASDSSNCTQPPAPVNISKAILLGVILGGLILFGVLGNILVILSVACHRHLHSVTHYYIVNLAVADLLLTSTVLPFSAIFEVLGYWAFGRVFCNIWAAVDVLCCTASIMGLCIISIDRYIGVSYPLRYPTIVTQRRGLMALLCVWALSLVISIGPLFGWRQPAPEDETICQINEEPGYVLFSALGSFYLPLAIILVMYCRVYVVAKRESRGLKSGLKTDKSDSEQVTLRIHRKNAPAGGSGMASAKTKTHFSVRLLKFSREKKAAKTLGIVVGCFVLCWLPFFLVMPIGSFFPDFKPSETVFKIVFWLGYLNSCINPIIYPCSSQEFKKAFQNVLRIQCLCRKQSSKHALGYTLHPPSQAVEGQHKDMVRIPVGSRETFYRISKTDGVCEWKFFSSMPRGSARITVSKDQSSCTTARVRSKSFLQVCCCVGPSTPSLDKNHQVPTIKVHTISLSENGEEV

[4] = target: T4, Alpha-1A adrenergic receptor (Homo sapiens, UniProt P35348); test: Agonist activity at human cloned adrenergic alpha-1A receptor expressed in CHO cells assessed as calcium mobilization by FLIPR; format: functional, cell-based
T4 sequence (P35348 whole entry): T3 sequence (whole entry)

[5] = target: T5, Alpha-1B adrenergic receptor (Homo sapiens, UniProt P35368); test: Agonist activity at human cloned adrenergic alpha-1B receptor expressed in CHO cells assessed as calcium mobilization by FLIPR; format: functional, cell-based
T5 sequence (P35368 whole entry): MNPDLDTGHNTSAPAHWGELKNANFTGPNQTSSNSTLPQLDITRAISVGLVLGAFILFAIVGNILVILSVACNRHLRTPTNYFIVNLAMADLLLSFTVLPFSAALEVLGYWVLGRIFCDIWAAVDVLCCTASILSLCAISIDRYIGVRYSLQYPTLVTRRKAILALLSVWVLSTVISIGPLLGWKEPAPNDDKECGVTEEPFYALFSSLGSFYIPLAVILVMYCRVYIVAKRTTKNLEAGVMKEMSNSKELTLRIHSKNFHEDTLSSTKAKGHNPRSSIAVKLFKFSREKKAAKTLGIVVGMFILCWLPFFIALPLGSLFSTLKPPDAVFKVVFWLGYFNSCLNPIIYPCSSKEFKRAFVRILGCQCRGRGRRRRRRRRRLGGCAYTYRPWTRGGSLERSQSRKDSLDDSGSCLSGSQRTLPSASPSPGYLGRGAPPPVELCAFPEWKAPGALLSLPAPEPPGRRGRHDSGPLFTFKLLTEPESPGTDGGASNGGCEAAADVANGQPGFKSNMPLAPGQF

[6] = target: T6, Alpha-2A adrenergic receptor (Homo sapiens) (UniProt P08913); test: Agonist activity at human cloned adrenergic alpha-2A receptor expressed in CHOK1 cells by beta-lactamase reporter gene assay relative to dexmeditomidine; format: functional, cell-based; details: CHO-K1
T6 sequence (whole entry): T1 sequence (P08913 whole entry)

[7] = target: T7, Alpha-1D adrenergic receptor (Homo sapiens) (UniProt P25100); test: Agonist activity at human cloned adrenergic Alpha-1D receptor expressed in CHO cells assessed as calcium mobilization by FLIPR relative to phenylephrine; format: functional, cell-based
T7 sequence (whole entry): T2 sequence (P25100 whole entry)

Row | SMILES | EC50 [1] [µM] | EC50 [2] [µM] | Emax [3] [%] | EC50 [4] [µM] | EC50 [5] [µM] | Emax [6] [%] | EC50 ([1]; cho-k1) [µM] | EC50 ([2]; cho) [µM] | EC50 ([5]; cho) [µM] | Emax [7] [%]
1 | Cn1ccc(-c2cccc3c2CCC3c2ncc[nH]2)n1 (configuration not stated) | > 10 | > 10 | 19 | > 1.3 | > 10 |  |  |  |  | 
2 | CNC(=O)c1cccc2c1CCC2c1ncc[nH]1 (configuration not stated) | 4.34 | > 10 | 59 | 2.2 | > 10 | 44 |  |  |  | 
3 | COc1cccc2c1CCC2c1ncc[nH]1 (configuration not stated) | 0.027 | > 10 | 65 | 0.032 | > 10 | 100 |  |  |  | 
4 | CS(=O)(=O)Nc1cccc2c1CCCC2c1ncc[nH]1 (stereo in doubt; 17b) [listing 1 of 2 here] | > 10 | > 10 |  | 2.15 | > 10 |  |  |  |  | 
5 | Cc1[nH]ncc1-c1cccc2c1CCC2c1ncc[nH]1 (configuration not stated) | > 10 | 0.634 |  | 0.003 | 0.902 |  |  |  |  | 
6 | COc1c(Cl)ccc2c1CCC2c1ncc[nH]1 (configuration not stated) |  | > 10 | 24 | 0.451 | > 10 |  |  |  |  | 
7 | Cc1ccc2c(c1NS(C)(=O)=O)CCC2c1ncc[nH]1 (configuration not stated) |  | > 10 | 83 | 0.033 | > 10 |  |  |  |  | 
8 | CS(=O)(=O)Nc1cccc2c1CCCC2c1ncc[nH]1 (stereo in doubt; 17) [listing 1 of 2 here] |  |  | 79 |  |  |  |  |  |  | 
9 | CS(=O)(=O)Nc1cccc2c1CCCC2c1ncc[nH]1 (stereo in doubt; 17a) [listing 1 of 2 here] |  |  | 79 |  |  |  |  |  |  | 
10 | CS(=O)(=O)Nc1cccc2c1CCCC2c1ncc[nH]1 (stereo in doubt; 17a) [listing 2 of 2 here] |  |  |  | 0.142 |  |  | > 10 | > 10 | > 10 | 
11 | Cn1cc(-c2cccc3c2CCC3c2ncc[nH]2)cn1 (configuration not stated) | > 10 | > 10 | 12 | > 2.9 | > 10 |  |  |  |  | 
12 | CS(=O)(=O)Nc1cccc2c1CCCC2c1ncc[nH]1 (stereo in doubt; 17b) [listing 2 of 2 here] |  |  | 47 |  |  |  |  |  |  | 
13 | c1cc(-c2cn[nH]c2)c2c(c1)C(c1ncc[nH]1)CC2 (configuration not stated) | > 10 | 0.319 | 84 | 0.014 | > 10 |  |  |  |  | 52
14 | Clc1ccc2c(c1-c1ccn[nH]1)CCC2c1ncc[nH]1 (configuration not stated) | > 10 | > 10 | 40 | 0.322 | > 10 |  |  |  |  | 
15 | CCS(=O)(=O)Nc1cccc(Cc2c[nH]cn2)c1 | > 10 | > 10 | 96 | 0.009 | > 10 |  |  |  |  | 
16 | Cc1c(OCC2=NCCN2)ccc(Cl)c1NS(C)(=O)=O [DABUZALGRON] | > 10 | > 10 | 60 |  | > 10 |  |  |  |  | 
17 | Clc1ccc2c(c1-c1cn[nH]c1)CCC2c1ncc[nH]1 (configuration not stated) | > 10 | > 10 |  | 0.078 | > 10 |  |  |  |  | 
18 | Cn1nccc1-c1cccc2c1CCC2c1ncc[nH]1 (configuration not stated) | > 10 | > 10 | 58 | 0.278 | > 10 |  |  |  |  | 
19 | c1ccc2c(c1)CCC2c1ncc[nH]1 (configuration not stated) |  | > 10 | 54 | 0.473 | > 10 |  |  |  |  | 
20 | CCCS(=O)(=O)Nc1cccc2c1CCC2c1ncc[nH]1 (configuration not stated) |  | > 10 | 54 | 1.34 | > 10 |  |  |  |  | 
21 | c1cc(-c2ncco2)c2c(c1)C(c1ncc[nH]1)CC2 (configuration not stated) | > 10 | 1.39 | 63 | 0.17 | > 10 |  |  |  |  | 38
22 | CS(=O)(=O)Nc1cccc2c1CCC2c1ncc[nH]1 (configuration not stated) | > 10 | > 10 | 87 | 0.07 | > 10 |  |  |  |  | 
23 | CCS(=O)(=O)Nc1cccc2c1CCC2c1ncc[nH]1 (configuration not stated) | > 10 | > 10 | 86 | 0.032 | > 10 |  |  |  |  | 
24 | c1ccc(-c2cccc3c2CCC3c2ncc[nH]2)nc1 (configuration not stated) | > 10 | > 10 | 53 | 1.15 | > 10 |  |  |  |  | 
25 | Cc1oncc1-c1cccc2c1CCC2c1ncc[nH]1 (configuration not stated) | > 10 | > 10 | 63 | 0.111 | > 10 |  |  |  |  | 
26 | CS(=O)(=O)Nc1cccc2c1CCCC2c1ncc[nH]1 (stereo in doubt; 17) [listing 2 of 2 here] |  |  |  | 0.234 |  |  | > 10 | > 10 | > 10 | 
27 | c1cc(-c2cc[nH]n2)c2c(c1)C(c1ncc[nH]1)CC2 (configuration not stated) | > 10 | 0.336 |  | 0.052 | 0.6 |  |  |  |  | 
28 | c1cc(-c2nccs2)c2c(c1)C(c1ncc[nH]1)CC2 (configuration not stated) | > 10 | 3.19 | 64 | 0.426 | > 10 |  |  |  |  | 27
